Laboratory results published in US20240277698A1, “METHODS OF USING ALDOSTERONE SYNTHASE INHIBITORS” (CINCOR PHARMA, INC., priority 2021, published 2024).

Experiments:
[1] = SAD study Part 2: adverse events under low/normal salt diet and 3 mg IV dose; format: in vivo
Procedure: There were no dose-related increases in the incidence of AEs (Table 15). No severe AEs, SAEs, withdrawals due to AEs, or deaths were reported. A larger proportion of subjects reported AEs during the 3 mg IV dose (75%) compared to any of the oral doses (maximum of 66.7% with 3 mg during the low salt diet and with 10 mg during both the low and normal salt diet). Overall, the most frequently reported AEs were nasopharyngitis, asthenia, and dizziness. AEs reported by >1 subject at any dose level and with either salt diet were asthenia (2 subjects [33.3%] with 10 mg low salt diet, 2 subjects [33.3%] with placebo low salt diet), nasopharyngitis (3 subjects [37.5%] with 3 mg IV, 2 subjects [33.3%] with 10 mg low salt diet), dizziness (2 subjects [33.3%] with 3 mg low salt diet) and gingival pain (2 subjects [33.3%] with 10 mg low salt diet). Only 1 AE (dizziness) reported by a subject receiving 10 mg (R)-compound 1 under normal salt diet conditions was considered related to the study drug. One case of fractured coccyx and one case of concussion (both reported for subjects who received the IV dose) were moderate in intensity and all other AEs were mild in intensity. […]

[2] = Relative bioavailability of tablet versus oral solution, single 5 mg dose; format: in vivo, human; settings: for AUC(0-inf) / AUC(0-t) / Cmax: 5 mg
Procedure: The relative bioavailability of the tablet formulation intended for use in future clinical studies as compared to the oral solution of (R)-compound 1 administered in the SAD and MAD was assessed following a single 5 mg dose of each formulation. Mean (+SD [standard deviation]) plasma concentration-time profiles following administration of the oral solution and tablet formulations are presented in FIG. 9.
Mean (SD) PK parameters of (R)-compound 1 following administration of the oral solution and tablet formulations are presented in Table 12.

[3] = Single-ascending dose (SAD) study in healthy subjects: plasma and urine pharmacokinetics; settings: human, in vivo
Procedure: A second, generally lower peak was often observed at 3 to 4 hours postdose.
A second, generally lower peak was often observed at 3 to 4 hours post-dose. […] Over the anticipated therapeutically relevant dose range (through 10 mg), peak and overall exposures (as assessed by Cmax and area under the concentration-time curve [AUC]) increased in a generally dose-proportional manner.
Single- and Multiple-Dose Plasma Pharmacokinetics of (R)-compound 1. The single- and multiple-dose PK profiles of (R)-compound 1 have been characterized in healthy subjects in the Phase 1 studies. FIG. 7 depicts the mean plasma concentration versus time profiles of (R)-compound 1 after administration of single oral doses of (R)-compound 1 ranging from 1 mg to 360 mg (under low salt conditions) and at steady-state over the range of 0.5 mg to 5 mg (under low and/or normal salt conditions). After oral administration, (R)-compound 1 is rapidly absorbed with peak concentrations observed within 3 hours after dosing (range 0.5 to 4 hours).

CCC(=O)N[C@@H]1CCCc2c(-c3ccc4c(c3)CCC(=O)N4C)cncc21 [(R)-Compound 1, (R)—N-(4-(1-methyl-2-oxo-1,2,3,4-tetrahydroquinolin-6-yl)-5,6,7,8-tetrahydroisoquinolin-8-yl)propionamide]
Any AE, % of subjects ([1]; 1 mg, low salt diet, N = 6): (33.3) %
Any AE, number of subjects ([1]; 1 mg, low salt diet, N = 6): 2
Related AE, number of subjects ([1]; 1 mg, low salt diet, N = 6): 0
Any AE, % of subjects ([1]; 1 mg, normal salt diet, N = 6): (50.0) %
Any AE, number of subjects ([1]; 1 mg, normal salt diet, N = 6): 3
Related AE, number of subjects ([1]; 1 mg, normal salt diet, N = 6): 0
proportion of subjects reporting AEs ([1]; 3 mg IV dose): 75%
Any AE, % of subjects ([1]; 3 mg IV, N = 8): (75.0) %
Any AE, number of subjects ([1]; 3 mg IV, N = 8): 6
Related AE, number of subjects ([1]; 3 mg IV, N = 8): 0
proportion of subjects reporting AEs, maximum of the oral doses ([1]; 3 mg low salt diet, 10 mg low and normal salt diet): ≤ 66.7%
Any AE, % of subjects ([1]; 3 mg, low salt diet, N = 6): (66.7) %
Any AE, number of subjects ([1]; 3 mg, low salt diet, N = 6): 4
Related AE, number of subjects ([1]; 3 mg, low salt diet, N = 6): 0
Any AE, % of subjects ([1]; 3 mg, normal salt diet, N = 6): (33.3) %
Any AE, number of subjects ([1]; 3 mg, normal salt diet, N = 6): 2
Related AE, number of subjects ([1]; 3 mg, normal salt diet, N = 6): 0
AEs considered related to the study drug (dizziness) ([1]; 10 mg normal salt diet): 1 AE
Any AE, % of subjects ([1]; 10 mg, low salt diet, N = 6): (66.7) %
Any AE, number of subjects ([1]; 10 mg, low salt diet, N = 6): 4
Related AE, number of subjects ([1]; 10 mg, low salt diet, N = 6): 0
Any AE, % of subjects ([1]; 10 mg, normal salt diet, N = 6): (66.7) %
Any AE, number of subjects ([1]; 10 mg, normal salt diet, N = 6): 4
Related AE, % of subjects ([1]; 10 mg, normal salt diet, N = 6): (16.7) %
Related AE, number of subjects ([1]; 10 mg, normal salt diet, N = 6): 1
AUC(0-inf) ([2]; human, plasma, oral, tablet, read-out: AUC0-inf, GM (Geo. CV %)): 1670 ng·h/mL
AUC(0-inf) ([2]; human, plasma, oral, tablet, read-out: AUC0-inf, Geo. LS Mean): 1720 ng·h/mL
AUC(0-inf) ([2]; human, plasma, oral, tablet, read-out: AUC0-inf, Mean): 1720 ng·h/mL
AUC(0-t) ([2]; human, plasma, oral, tablet, read-out: AUC0-t, GM (Geo. CV %)): 1580 ng·h/mL
AUC(0-t) ([2]; human, plasma, oral, tablet, read-out: AUC0-t, Geo. LS Mean): 1620 ng·h/mL
AUC(0-t) ([2]; human, plasma, oral, tablet, read-out: AUC0-t, Mean): 1620 ng·h/mL
Cmax ([2]; human, plasma, oral, tablet, read-out: Cmax, GM (Geo. CV %)): 52.3 ng/mL
Cmax ([2]; human, plasma, oral, tablet, read-out: Cmax, Geo. LS Mean): 52.8 ng/mL
Cmax ([2]; human, plasma, oral, tablet, read-out: Cmax, Mean (SD)): 53.1 ng/mL
Tmax ([2]; human, plasma, oral, tablet, read-out: Tmax, Median (min, max)): 3 h
AUC(0-inf) ([2]; human, plasma, po, oral solution, read-out: AUC0-inf, GM (Geo. CV %)): 1710 ng·h/mL
AUC(0-inf) ([2]; human, plasma, po, oral solution, read-out: AUC0-inf, Geo. LS Mean): 1680 ng·h/mL
AUC(0-inf) ([2]; human, plasma, po, oral solution, read-out: AUC0-inf, Mean): 1750 ng·h/mL
AUC(0-t) ([2]; human, plasma, po, oral solution, read-out: AUC0-t, GM (Geo. CV %)): 1610 ng·h/mL
AUC(0-t) ([2]; human, plasma, po, oral solution, read-out: AUC0-t, Geo. LS Mean): 1580 ng·h/mL
AUC(0-t) ([2]; human, plasma, po, oral solution, read-out: AUC0-t, Mean): 1650 ng·h/mL
Cmax ([2]; human, plasma, po, oral solution, read-out: Cmax, GM (Geo. CV %)): 52.7 ng/mL
Cmax ([2]; human, plasma, po, oral solution, read-out: Cmax, Geo. LS Mean): 52.1 ng/mL
AUCextrapolated, GM (Geo. CV %) ([2]; oral solution): 5.018 (56.4) %
AUCextrapolated, Mean (SD) ([2]; oral solution): 5.565 (2.2131) %
Cmax, Mean (SD) ([2]; oral solution): 53.886 (11.6813) ng/mL
Tmax, Median (min, max) ([2]; oral solution): 2.500 (1.00, 3.50) h
AUCextrapolated, GM (Geo. CV %) ([2]; tablet): 4.995 (59.7) %
AUCextrapolated, Mean (SD) ([2]; tablet): 5.600 (2.3669) %
AUC0-inf, Ratio of Geo. LS Means (tablet/solution) ([2]; tablet versus oral solution): 102.2%
AUC0-t, Ratio of Geo. LS Means (tablet/solution) ([2]; tablet versus oral solution): 102.2%
Cmax, Ratio of Geo. LS Means (tablet/solution) ([2]; tablet versus oral solution): 101.2%
CL renal [3]: 4.63 to 7.38 mL/min
Renal clearance as share of total plasma clearance, average [3]: 15.5%
Renal clearance as share of total plasma clearance, range of individual values [3]: 6.53-31.8%
fraction unbound [3]: 0.26
dose recovered unchanged in the urine ([3]; po): Approximately 110%
half-life ([3]; po): 25 to 31 h
median time (tmax) to maximum observed concentration (Cmax) ([3]; po): 0.5 to 2 h
second, generally lower peak, time postdose ([3]; po): 3 to 4 h
time to peak concentrations, range ([3]; po): 0.5 to 4 h
AUC(0-inf) ([3]; po, 1 mg): 330 ng·h/mL
AUC(0-t) ([3]; po, 1 mg): 147 ng·h/mL
AUCextrapoloated ([3]; po, 1 mg): 1.66%
CL/F ([3]; po, 1 mg): 3270 mL/h
Cmax ([3]; po, 1 mg): 10.1 ng/mL
Tmax ([3]; po, 1 mg): 1 h
Vd/F ([3]; po, 1 mg): 122 L
half-life ([3]; po, 1 mg): 27.4 h
AUC(0-inf) ([3]; po, 3 mg): 1070 ng·h/mL
AUC(0-t) ([3]; po, 3 mg): 491 ng·h/mL
AUCextrapoloated ([3]; po, 3 mg): 1.68%
CL/F ([3]; po, 3 mg): 2820 mL/h
Cmax ([3]; po, 3 mg): 31.9 ng/mL
Tmax ([3]; po, 3 mg): 2 h
Vd/F ([3]; po, 3 mg): 117 L
half-life ([3]; po, 3 mg): 29.1 h
AUC(0-inf) ([3]; po, 10 mg): 3630 ng·h/mL
AUC(0-t) ([3]; po, 10 mg): 1600 ng·h/mL
AUCextrapoloated ([3]; po, 10 mg): 1.37%
CL/F ([3]; po, 10 mg): 2820 mL/h
Cmax ([3]; po, 10 mg): 125 ng/mL
Tmax ([3]; po, 10 mg): 0.5 h
Vd/F ([3]; po, 10 mg): 123 L
half-life ([3]; po, 10 mg): 30.7 h
AUC(0-inf) ([3]; po, 30 mg): 11000 ng·h/mL
AUC(0-t) ([3]; po, 30 mg): 5260 ng·h/mL
AUCextrapoloated ([3]; po, 30 mg): 0.986%
CL/F ([3]; po, 30 mg): 2820 mL/h
Cmax ([3]; po, 30 mg): 386 ng/mL
Tmax ([3]; po, 30 mg): 0.75 h
half-life ([3]; po, 30 mg): 29.4 h
AUC(0-inf) ([3]; po, 90 mg): 32200 ng·h/mL
AUC(0-t) ([3]; po, 90 mg): 18300 ng·h/mL
AUCextrapoloated ([3]; po, 90 mg): 0456%
CL/F ([3]; po, 90 mg): 2830 mL/h
Cmax ([3]; po, 90 mg): 1380 ng/mL
Tmax ([3]; po, 90 mg): 1.25 h
Vd/F ([3]; po, 90 mg): 102 L
half-life ([3]; po, 90 mg): 25.3 h
AUC(0-inf) ([3]; po, 180 mg): 65800 ng·h/mL
AUC(0-t) ([3]; po, 180 mg): 33200 ng·h/mL
AUCextrapoloated ([3]; po, 180 mg): 0.789%
CL/F ([3]; po, 180 mg): 2900 mL/h
Cmax ([3]; po, 180 mg): 2490 ng/mL
Tmax ([3]; po, 180 mg): 1 h
Vd/F ([3]; po, 180 mg): 114 L
half-life ([3]; po, 180 mg): 28 h
AUC(0-inf) ([3]; po, 360 mg): 147000 ng·h/mL
AUC(0-t) ([3]; po, 360 mg): 73200 ng·h/mL
AUCextrapoloated ([3]; po, 360 mg): 0719%
CL/F ([3]; po, 360 mg): 2480 mL/h
Cmax ([3]; po, 360 mg): 5750 ng/mL
Tmax ([3]; po, 360 mg): 0.5 h
half-life ([3]; po, 360 mg): 27.8 h
